{"source": "patent US20070149580A1", "about": "“USE OF PEROXISOME PROLIFERATOR ACTIVATED RECEPTOR DELTA AGONISTS FOR THE TREATMENT OF MS AND OTHER DEMYELINATING DISEASES” (AVENTIS PHARMACEUTICALS INC., priority 2004, published 2007)", "key": {"human RXR receptor": {"biological_target": "human RXR receptor", "test": "Cellular human RXR receptor luciferase reporter assay", "format": "cell-based", "conditions": "Retinoid X receptor", "procedure": "Determination of EC50 Values in the Cellular Human RXR Receptor Assay\nCell Based RXR Assay Protocol\nTo perform cell based assays a luciferase assay is performed in 96 well plates as follows: […]\n• Aspirate medium from cells • Freeze plates at −20° C. (optional) • Thaw plates for 30 min (if necessary) • Add 50 μl Bright-Glo-Luciferase Assay Reagent (Promega, Cat. No. E2650) • Incubate for 10 min in the dark • Measure luminescence 2 sec per well (Wallac Microbeta) Data Analysis […]"}, "[1]": {"test_system": "mixed cultures of human oligodendrocytes", "test": "Human oligodendrocyte differentiation assay (O4 immunopositive cell count)", "format": "cell-based", "conditions": "FIGS. 5 and 6", "procedure": "• 1. Human neurospheres collected from E19.5-[…] human embryo cortex) are cultured for 2 weeks in progenitor media: […] Neurospheres are dissociated with 20 U/ml papain at 37° C. for 30-50 min. • 3. Cells are plated onto PDL coated dishes at density of 50,000-100,000 cell/well in progenitor media containing PDGF/FGF and incubated at 37° C. with 5-6% CO2. • 4. Media and growth factors are replenished every 48 hr. Human Culture Compound Treatment: • 1. 24 to 48 hr after plating remove the old medium and add compounds in fresh medium (with mitogen) • 2. Compound dose response evaluations are performed at 3-6 different concentrations (10 µM, 1 µM, 100 nM, 10 nM, 1 nM, and 0.1 nM) • 3. […] Sequential staining is performed on oligodendrocyte populations with increasing degrees of cellular differentiation, as determined by days in vitro without PDGF and FGF. • 2. […] Colormetric visualization of the BrdU immunoreactivity is developed with DAB and total cell numbers are assessed using the counter-stain hematoxylin. • 4. BrdU immunopositive cells are counted by two independent observers. Rat/Mouse/Human Culture Image Analysis: Fluorescent microscopy is used to quantitate the extent of oligodendrocyte differentiation after compound exposure. […] Manual Cell Counting: Four fields are randomly selected for each experimental condition and 500-600 cells are counted in each field. […]"}}}
{"compound": "Cc1cc(SCc2sc(-c3ccc(C(F)(F)F)cc3)nc2C)ccc1OCC(=O)O", "note": "[Compound 1]", "values": [{"measurement": "Human PPAR RXR EC50", "setting": "human RXR receptor", "result": "No increase"}, {"measurement": "number of O4 immunopositive cells", "setting": "[1]", "result": "increase"}]}
{"compound": "CCCc1c(OCCCOc2ccc(OCC(=O)O)cc2)ccc(C(C)=O)c1O", "note": "[Compound 2]", "values": [{"measurement": "Human PPAR RXR EC50", "setting": "human RXR receptor", "result": "No increase"}, {"measurement": "number of O4 immunopositive cells", "setting": "[1]", "result": "increase"}]}
